# Results: US20130078613A1, “Selection of HCV Treatment” (ROCHE MOLECULAR SYSTEMS, priority 2011, published 2013)
# Marks after values point to notes of the source that are not given here.
# Columns and labels:
# [1] = target: NS5B-directed HCV polymerase (Hepatitis C virus genotype 1b, UniProt Q9WMX2); settings: ref [7]; cited from earlier work
# HCV [2] = settings: combination with PEG-IFN and RBV; cited from earlier work
# NS5B (S282T) = target: T1, NS5B (S282T) (Hepatitis C virus genotype 1b, UniProt Q9WMX2, S2701T); settings: sequential passage of replicon cells; cited from earlier work
# T1 construct: Amino acid substitution in NS5B (S282T)
# T1 sequence (Q9WMX2 2420-3010 S2701T): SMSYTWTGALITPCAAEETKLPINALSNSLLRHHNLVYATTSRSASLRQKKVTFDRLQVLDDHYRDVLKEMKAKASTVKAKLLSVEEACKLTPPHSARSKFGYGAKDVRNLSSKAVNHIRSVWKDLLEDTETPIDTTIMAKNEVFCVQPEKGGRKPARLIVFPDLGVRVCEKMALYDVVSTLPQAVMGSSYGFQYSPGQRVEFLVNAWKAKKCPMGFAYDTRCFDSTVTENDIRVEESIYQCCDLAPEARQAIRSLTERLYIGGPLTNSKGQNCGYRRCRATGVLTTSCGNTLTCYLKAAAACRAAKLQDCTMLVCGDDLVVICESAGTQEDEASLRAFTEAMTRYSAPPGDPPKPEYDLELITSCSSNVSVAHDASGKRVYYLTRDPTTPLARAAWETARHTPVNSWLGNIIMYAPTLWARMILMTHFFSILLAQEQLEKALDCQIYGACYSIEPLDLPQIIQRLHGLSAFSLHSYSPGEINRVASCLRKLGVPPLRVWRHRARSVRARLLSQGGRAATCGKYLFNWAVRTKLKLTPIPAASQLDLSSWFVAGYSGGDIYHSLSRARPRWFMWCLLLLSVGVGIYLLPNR
# HCV genotypes (1-4) = settings: four main genotypes (1-4); cited from earlier work
# CHC genotype 1 or 4 [3] = experiment: Clinical Study NV20536; assay type: in vivo, human; settings: for SVR-12 and SVR-24: across RVR-guided arms; for relapse / SVR-12 (%) / SVR-12 n/N / SVR-24 (%) / SVR-24 n/N: sRVR patients
# Excerpt: (§1) The term “response” to treatment is a desirable response to the administration of an agent. Virological endpoints included “early virological response” (EVR), defined as ≧2-log drop in serum HCV RNA from baseline to week 12 (by Cobas Amplicor HCV Monitor Test, v2.0, limit of quantitation 600 IU/mL), complete EVR (cEVR) defined as undetectable HCV RNA (<15 IU/mL) in serum (by Cobas Amplicor HCV Test v2.0, […]) or and “sustained virological response” (SVR), defined as undetectable HCV RNA (<15 IU/mL) at the end of either a 12-week (SVR-12) or a 24-week (SVR-24) untreated follow-up period. The term “sustained rapid virological response” (sRVR) refers to undetectable HCV RNA (<15 IU/mL) during the period of 4 weeks and 22 weeks of treatment. The term “extended rapid virological response” (eRVR) refers to undetectable HCV RNA (<15 IU/mL) during the period of between 4 weeks and 20 weeks of treatment.
# Study NV20536 was designed to determine the optimal dose (500 or 1000 mg twice daily [BID]) and duration (8 or 12 weeks) of RO5024048 in combination with PEG-IFN/RBV in treatment-naïve CHC genotype 1 or 4 patients. Patients enrolled in Study NV20536 were randomized to one of five treatment groups (FIG. 1A) (approximately 80 patients per treatment group). In the response-guided treatment groups, patients with a sustained RVR (sRVR, defined as undetectable HCV RNA from week 4-22) stopped all therapy at Week 24.
# Patients received double blinded experimental treatment with RO5024048 500 mg BID and standard of care treatment (SOC, Pegasys 180 μg sc qw+Copegus 1000 mg (<75 kg) or 1200 mg (≧75 kg) po qd) or RO5024048 1000 mg BID and SOC respectively, for 12 weeks followed by SOC for 12 weeks. Patients who achieve an RVR, defined as undetectable HCV RNA at week 4, and remain undetectable through week 22 stopped all treatment at week 24. Non-RVR patients received SOC for an additional 24 weeks for a total treatment duration of 48 weeks.
# Patients received double blinded experimental treatment with RO5024048 1000 mg BID and SOC for 8 weeks followed by SOC for 16 weeks. Patients who achieve an RVR defined as undetectable HCV RNA at week 4, and remain undetectable through week 22 stopped all treatment at week 24. Non-RVR patients received SOC for an additional 24 weeks for a total treatment duration of 48 weeks. […]
# The Roche Clinical Repository (RCR) is an optional program that requires separate consent; data are anonymized to assure patient privacy. The RCR DNA samples were used to determine IL28B status using TaqMan Real-Time PCR for rs12979860. Efficacy endpoints were summarized for the two subgroups, CC vs. non-CC (CT and TT).
# [4] = extensively converted to RO4995855; cited from earlier work
# CHC genotype 1 or 4 [5] = experiment: Clinical Study NV22621; assay type: in vivo, human
# Excerpt: as §1
# Study NV22621 was designed to determine the safety and efficacy of longer treatment duration (24 weeks) of 1000 mg BID RO5024048 in combination with PEG-IFN/RBV in treatment naïve CHC genotype 1 or 4 patients. Patients enrolled in Study NV22621 were randomized to one of two treatment groups (FIG. 1B) (approximately 80 patients per treatment group). In the response-guided treatment group, patients with a sustained RVR (sRVR, defined as undetectable HCV RNA from week 4-22) stopped all therapy at Week 24.
# The Roche Clinical Repository (RCR) is an optional program that requires separate consent; data are anonymized to assure patient privacy. The RCR DNA samples were used to determine IL28B status using TaqMan Real-Time PCR. Efficacy endpoints were summarized for the two subgroups, CC vs. non-CC (CT and TT).
# HCV [6] = settings: RBV monotherapy; cited from earlier work
# [7] = Group A, 500 mg 12 wks + P/R RVR-guided, IL28B CC
# [8] = Group A, 500 mg 12 wks + P/R RVR-guided, IL28B NonCC
# [9] = Group A, 500 mg 12 wks + P/R RVR-guided, Total
# [10] = Group B, 1000 mg 8 wks + P/R RVR-guided, IL28B CC
# [11] = Group B, 1000 mg 8 wks + P/R RVR-guided, IL28B NonCC
# [12] = Group B, 1000 mg 8 wks + P/R RVR-guided, Total
# [13] = Group C, 1000 mg 12 wks + P/R RVR-guided, IL28B CC
# [14] = Group C, 1000 mg 12 wks + P/R RVR-guided, IL28B NonCC
# [15] = Group C, 1000 mg 12 wks + P/R RVR-guided, Total
# [16] = Group A, 1000 mg 24 wks + P/R RVR-guided, Total, sRVR patients
# Chain of NS5B-directed HCV polymerase (Q9WMX2 2420-3010): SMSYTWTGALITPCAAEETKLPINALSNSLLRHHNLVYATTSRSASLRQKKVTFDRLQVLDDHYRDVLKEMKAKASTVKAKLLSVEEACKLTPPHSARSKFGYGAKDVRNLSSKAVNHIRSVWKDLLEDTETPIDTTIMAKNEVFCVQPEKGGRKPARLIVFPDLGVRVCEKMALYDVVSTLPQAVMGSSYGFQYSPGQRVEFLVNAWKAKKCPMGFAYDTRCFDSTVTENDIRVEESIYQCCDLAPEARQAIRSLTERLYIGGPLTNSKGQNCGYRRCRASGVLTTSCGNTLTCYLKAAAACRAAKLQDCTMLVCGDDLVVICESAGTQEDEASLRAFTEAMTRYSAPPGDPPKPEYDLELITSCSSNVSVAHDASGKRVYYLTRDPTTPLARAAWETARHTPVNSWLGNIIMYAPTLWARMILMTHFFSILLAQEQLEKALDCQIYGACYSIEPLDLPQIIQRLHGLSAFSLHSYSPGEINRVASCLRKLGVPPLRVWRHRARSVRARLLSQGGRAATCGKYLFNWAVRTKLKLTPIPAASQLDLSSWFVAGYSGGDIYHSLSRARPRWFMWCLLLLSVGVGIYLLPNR
smiles,measurement,setting,value
"CC(C)C(=O)OC[C@H]1O[C@@H](n2ccc(N)nc2=O)[C@](C)(F)[C@@H]1OC(=O)C(C)C [RO5024048, mericitabine]",IC50,[1],610 ± 40 nM
same,antiviral effect of combination,HCV [2],additive antiviral effect
same,resistance conferred by NS5B S282T substitution,NS5B (S282T),low level resistance
same,in vitro activity across genotypes,HCV genotypes (1-4),Activity has been demonstrated
same,RVR (undetectable HCV RNA at week 4),"CHC genotype 1 or 4 [3]; 500-mg 12-week RVR-guided group, with PEG-IFN/RBV, overall population",38%
same,SVR-12 and SVR-24,CHC genotype 1 or 4 [3]; CC patients who achieve sRVR and stop all treatment after 24 weeks,67-90%
same,relapse,"CHC genotype 1 or 4 [3]; CC, arm A, 12 weeks followup after EOT",2/8
same,relapse,"CHC genotype 1 or 4 [3]; CC, arm A, 24 weeks followup after EOT",2/7
same,relapse,"CHC genotype 1 or 4 [3]; CC, arm C, 12 weeks followup after EOT",4/12
same,relapse,"CHC genotype 1 or 4 [3]; CC, arm C, 24 weeks followup after EOT",4/12
same,SVR-12 (%),CHC genotype 1 or 4 [3]; [7],(75.0%)
same,SVR-12 n/N,CHC genotype 1 or 4 [3]; [7],6/8
same,SVR-24 (%),CHC genotype 1 or 4 [3]; [7],(85.7%)
same,SVR-24 n/N,CHC genotype 1 or 4 [3]; [7],6/7
same,SVR-12 (%),CHC genotype 1 or 4 [3]; [8],(66.7%)
same,SVR-12 n/N,CHC genotype 1 or 4 [3]; [8],6/9
same,SVR-24 (%),CHC genotype 1 or 4 [3]; [8],(55.6%)
same,SVR-24 n/N,CHC genotype 1 or 4 [3]; [8],5/9
same,SVR-12 (%),CHC genotype 1 or 4 [3]; [9],(70.6%)*
same,SVR-12 n/N,CHC genotype 1 or 4 [3]; [9],12/17
same,SVR-24 (%),CHC genotype 1 or 4 [3]; [9],(68.8%)*
same,SVR-24 n/N,CHC genotype 1 or 4 [3]; [9],11/16
same,sRVR (%),"CHC genotype 1 or 4 [3]; Group A, RO5024048 500 mg 12 wks + P/R 24/48 wks RVR-guided, N = 49, Total",(36.7%)
same,SVR-12 (%),CHC genotype 1 or 4 [3]; [10],(90.0%)
same,SVR-12 n/N,CHC genotype 1 or 4 [3]; [10],9/10
same,SVR-24 (%),CHC genotype 1 or 4 [3]; [10],(80.0%)
same,SVR-24 n/N,CHC genotype 1 or 4 [3]; [10],8/10
same,SVR-12 (%),CHC genotype 1 or 4 [3]; [11],(38.5%)
same,SVR-12 n/N,CHC genotype 1 or 4 [3]; [11],5/13
same,SVR-24 (%),CHC genotype 1 or 4 [3]; [11],(25.0%)
same,SVR-24 n/N,CHC genotype 1 or 4 [3]; [11],3/12
same,SVR-12 (%),CHC genotype 1 or 4 [3]; [12],(60.9%)
same,SVR-12 n/N,CHC genotype 1 or 4 [3]; [12],14/23
same,SVR-24 (%),CHC genotype 1 or 4 [3]; [12],(50.0%)*
same,SVR-24 n/N,CHC genotype 1 or 4 [3]; [12],11/22
same,sRVR (%),"CHC genotype 1 or 4 [3]; Group B, RO5024048 1000 mg 8 wks + P/R 24/48 wks RVR-guided, N = 49, Total",(46.9%)
same,SVR-12 n/N,CHC genotype 1 or 4 [3]; [13],8/12
same,SVR-24 (%),CHC genotype 1 or 4 [3]; [13],(66.7%)
same,SVR-24 n/N,CHC genotype 1 or 4 [3]; [13],8/12
same,SVR-12 n/N,CHC genotype 1 or 4 [3]; [14],5/18
same,SVR-24 (%),CHC genotype 1 or 4 [3]; [14],(22.2%)
same,SVR-24 n/N,CHC genotype 1 or 4 [3]; [14],4/18
same,SVR-12 (%),CHC genotype 1 or 4 [3]; [15],(43.3%)
same,SVR-12 n/N,CHC genotype 1 or 4 [3]; [15],13/30
same,SVR-24 (%),CHC genotype 1 or 4 [3]; [15],(40.0%)
same,SVR-24 n/N,CHC genotype 1 or 4 [3]; [15],12/30
same,sRVR (%),"CHC genotype 1 or 4 [3]; Group C, RO5024048 1000 mg 12 wks + P/R 24/48 wks RVR-guided, N = 46, Total",(65.2%)
same,SVR-12 and SVR-24,CHC genotype 1 or 4 [3]; non-CC patients who achieve sRVR and stop all treatment after 24 weeks,22-67%
same,relapse,"CHC genotype 1 or 4 [3]; non-CC, Arm A, 12 weeks followup after EOT",3/9
same,relapse,"CHC genotype 1 or 4 [3]; non-CC, Arm A, 24 weeks followup after EOT",4/9
same,relapse,"CHC genotype 1 or 4 [3]; non-CC, Arm C, 12 weeks followup after EOT",13/18
same,relapse,"CHC genotype 1 or 4 [3]; non-CC, Arm C, 24 weeks followup after EOT",14/18
same,absorption after oral administration,[4],rapidly absorbed
same,cEVR,"CHC genotype 1 or 4 [5]; 1000-mg group, RCR-consented population",94%
same,SVR-12 n/N,"CHC genotype 1 or 4 [5]; Group A, 1000 mg 24 wks + P/R RVR-guided, IL28B CC, sRVR patients",12/15
same,SVR-12 n/N,"CHC genotype 1 or 4 [5]; Group A, 1000 mg 24 wks + P/R RVR-guided, IL28B NonCC, sRVR patients",13/18
same,SVR-12 (%),CHC genotype 1 or 4 [5]; [16],(75.0%)*
same,SVR-12 n/N,CHC genotype 1 or 4 [5]; [16],24/32
same,sRVR (%),"CHC genotype 1 or 4 [5]; Group A, RO5024048 1000 mg 24 wks + P/R 24/48 wks RVR-guided, N = 52, Total",(63.5%)
same,RVR,"CHC genotype 1 or 4 [5]; RVR-guided 1000-mg group (24 wks with PEG-IFN/RBV), overall population",63%
same,cEVR,"CHC genotype 1 or 4 [5]; RVR-guided 1000-mg group, overall ITT population",89%
same,week-24 virological response,"CHC genotype 1 or 4 [5]; RVR-guided 1000-mg group, overall population",91%
same,maximal rate of undetectable viral load,"CHC genotype 1 or 4 [5]; non-CC genotype, 24 weeks of triple therapy, at weeks 20 to 24 (data not shown)",> 90%
"NC(=O)c1ncn([C@@H]2O[C@H](CO)[C@@H](O)[C@H]2O)n1 [ribavirin, 1-((2R,3R,4S,5R)-3,4-Dihydroxy-5-hydroxymethyl-tetrahydro-furan-2-yl)-1H-[1,2,4]triazole-3-carboxylic acid amide]",effect on the replication of HCV,HCV [6],little or no effect
